Assay results from patent publication US9790233B2, “Compositions and methods of modulating 15-PGDH activity” (CASE WESTERN RESERVE UNIVERSITY, priority 2012, dated 2017).
Where two headings read alike, the source gives them in different places.

Assays:
Format in all cases: cell-based
[1] = system: 15-PGDH luciferase fusion construct in Vaco503 reporter cell line; assay: 15-PGDH-luciferase fusion gene reporter induction, V503 cells
[2] = system: 15-PGDH luciferase fusion construct in V9m reporter cell line; assay: 15-PGDH-luciferase fusion gene reporter induction, V9m cells
[3] = system: 15-PGDH luciferase fusion construct in LS174T reporter cell line; assay: 15-PGDH-luciferase fusion gene reporter induction, LS174T cells; conditions: Homo sapiens
[4] = read-out: V503 reporter activity ([…]), […], % increased luciferase activity over basal level, read-out: V503 reporter activity (2.5 uM)
[5] = read-out: V503 reporter activity ([…]), […], % increased luciferase activity over basal level, read-out: V503 reporter activity (7.5 uM)
[6] = read-out: V9M reporter activity ([…]), […], % increased luciferase activity over basal level, 100 = doubling, read-out: V9M reporter activity (2.5 uM)
[7] = read-out: V9M reporter activity ([…]), […], % increased luciferase activity over basal level, 100 = doubling, read-out: V9M reporter activity (7.5 uM)
[8] = read-out: LS174T reporter activity ([…]), […], % increased luciferase activity over basal level, read-out: LS174T reporter activity (2.5 uM)
[9] = read-out: LS174T reporter activity ([…]), […], % increased luciferase activity over basal level, read-out: LS174T reporter activity (7.5 uM)
[10] = read-out: V503-3H9-7 reporter activity, % ([…]), V503 reporter cells, […] compound, % induction of luciferase activity over basal level, read-out: V503-3H9-7 reporter activity, % (2.5 μM)
[11] = read-out: V503-3H9-7 reporter activity, % ([…]), V503 reporter cells, […] compound, % induction of luciferase activity over basal level, read-out: V503-3H9-7 reporter activity, % (7.5 μM)
[12] = read-out: V9M-SC3 Reporter activity ([…]) (%), V9m reporter cells, […] compound, % induction of luciferase activity over basal level, read-out: V9M-SC3 Reporter activity (2.5 μM) (%)
[13] = read-out: V9M-SC3 Reporter activity ([…]), %, V9m reporter cells, […] compound, % induction of luciferase activity over basal level, read-out: V9M-SC3 Reporter activity (7.5 μM), %
[14] = read-out: Ls174T-SC1 reporter activity, % ([…]), LS174T reporter cells, […] compound, % induction of luciferase activity over basal level, read-out: Ls174T-SC1 reporter activity, % (2.5 μM)
[15] = read-out: Ls174T-SC1 reporter activity, % ([…]), LS174T reporter cells, […] compound, % induction of luciferase activity over basal level, read-out: Ls174T-SC1 reporter activity, % (7.5 μM)
[16] = read-out: V503-3H9-7 reporter activity, % ([…]), […], Table 18, read-out: V503-3H9-7 reporter activity, % (2.5 μM)
[17] = read-out: V503-3H9-7 reporter activity, % ([…]), […], Table 18, read-out: V503-3H9-7 reporter activity, % (7.5 μM)
[18] = read-out: V9M-SC3 Reporter activity ([…]) (%), […], Table 18, read-out: V9M-SC3 Reporter activity (2.5 μM) (%)
[19] = read-out: Ls174T-SC1 reporter activity, % ([…]), […], Table 18, read-out: Ls174T-SC1 reporter activity, % (2.5 μM)
[20] = read-out: Ls174T-SC1 reporter activity, % ([…]), […], Table 18, read-out: Ls174T-SC1 reporter activity, % (7.5 μM)
[21] = read-out: V503 reporter activity ([…]), […], % induction over basal level, Table 17, read-out: V503 reporter activity (2.5 μM)
[22] = read-out: V503 reporter activity ([…]), […], % induction over basal level, Table 17, read-out: V503 reporter activity (7.5 μM)
[23] = read-out: V9M reporter activity ([…]), […], % induction of luciferase activity over basal level, Table 17, read-out: V9M reporter activity (2.5 μM)
[24] = read-out: V9M reporter activity ([…]), […], % induction over basal level, Table 17, read-out: V9M reporter activity (7.5 μM)
[25] = read-out: LS174T reporter activity ([…]), […], % induction over basal level, Table 17, read-out: LS174T reporter activity (2.5 μM)
[26] = read-out: lS174T reporter activity ([…]), […], % induction over basal level, Table 17, read-out: lS174T reporter activity (7.5 μM)

SMILES	activation at […] [1, 10] [%]	activation at […] [1, 11] [%]	activation at […] [2, 12] [%]	activation at […] [2, 13] [%]	activation at […] [3, 14] [%]	activation at […] [3, 15] [%]	activation at […] [1, 21] [%]	activation at […] [1, 22] [%]	activation at […] [2, 23] [%]	activation at […] [2, 24] [%]	activation at […] [3, 25] [%]	activation at […] [3, 26] [%]	further results
CCCC[S+]([O-])c1ncccc1N (stereo not drawn) [SW208070, 2-(butylsulfinyl)pyridin-3-amine]	–	–	–	–	–	–	–	–	–	–	–	–	activation at […] [1, 4]: 19.7%; activation at […] [1, 5]: 15.4%; activation at […] [2, 6]: 22.6%; activation at […] [2, 7]: 12.1%; activation at […] [3, 8]: 19.7%; activation at […] [3, 9]: 15.4%
COc1ccc(OC)c(N(CC(=O)N2CCCC2)S(=O)(=O)c2ccccc2)c1 [SW208001]	-4.07	6.68	19.6	23.3	-0.61	1.87	–	–	–	–	–	–	–
COc1ccc(OC)c(N(CC(=O)Nc2cccnc2Cl)S(=O)(=O)c2ccccc2)c1 [SW202973]	41.5	107	-15.6	5.61	-16.4	19.3	–	–	–	–	–	–	–
CCCNC(=O)c1sc2nc(-c3cccs3)cc(-c3ccccc3)c2c1N [SW206977, 3-amino-4-phenyl-N-propyl-6-(thiophen-2-yl)thieno[2,3-b]pyridine-2-carboxamide]	–	–	–	–	–	–	–	–	–	–	–	–	activation at […] [1, 4]: 33%; activation at […] [1, 5]: 37.6%; activation at […] [2, 6]: 3.5%; activation at […] [2, 7]: 0.45%; activation at […] [3, 8]: 34.9%; activation at […] [3, 9]: 29.4%
COc1ccc(OC)c(N(CC(=O)Nc2ccncc2F)S(=O)(=O)c2ccccc2)c1 [SW208004]	147	177	43.7	76.1	62.2	118	–	–	–	–	–	–	–
CCc1ccc(N(CC(=O)Nc2cccnc2)S(=O)(=O)c2ccccc2)cc1 [461439−84−9]	–	–	–	–	–	–	–	–	–	–	–	–	activation at […] [1, 16]: 1.57%; activation at […] [1, 17]: 5.41%; activation at […] [2, 18]: -30.3%; activation at […] [3, 19]: 4.83%; activation at […] [3, 20]: -35%
COc1ccc(OC)c(N(CC(=O)Nc2cccc(Br)c2)S(=O)(=O)c2ccc(OC)c(OC)c2)c1 [compound 939417]	–	–	–	–	–	–	12.6	16.2	-11.2	-9.81	6.5	-1.64	–
COc1ccc(OC)c(N(CC(=O)Nc2cccnc2)S(=O)(=O)c2c(C)cc(C)cc2C)c1 [SW202953]	32	50.9	13	34.8	20.7	30.7	–	–	–	–	–	–	–
COc1ccc(N(CC(=O)Nc2cccc(Cl)c2)S(=O)(=O)c2ccc(OC)c(OC)c2)cc1 [compound 408961]	–	–	–	–	–	–	11.7	17.6	-12.4	0.56	2.46	-4.51	–
COC(=O)c1ccccc1NC(=O)CN(c1cc(OC)ccc1OC)S(=O)(=O)c1ccccc1 [333449-58-4]	–	–	–	–	–	–	–	–	–	–	–	–	activation at […] [1, 16]: 50.1%; activation at […] [1, 17]: 20.7%; activation at […] [2, 18]: 6.5%; activation at […] [3, 19]: -5.9%; activation at […] [3, 20]: -3.99%
COc1ccc(OC)c(N(CC(=O)OC(C)C)S(=O)(=O)c2ccccc2)c1 [SW202971]	85.5	169	-14.5	9.67	-7.91	34.5	–	–	–	–	–	–	–
COc1ccc(OC)c(N(CC(=O)Nc2cccnc2)S(=O)(=O)c2ccccc2OC(F)(F)F)c1 [SW202954]	-8.94	2.39	2.7	4.8	-4.59	-6.99	–	–	–	–	–	–	–
COc1ccc(OC)c(N(CC(=O)Nc2ccccc2)S(=O)(=O)c2ccccc2)c1 [SW203687]	45.7	-41.6	28.2	47.5	1.75	56	–	–	–	–	–	–	–
CCCCC(=O)c1sc2nc(-c3cccs3)cc(-c3ccccc3)c2c1N [SW206976, 1-(3-amino-4-phenyl-6-(thiophen-2-yl)thieno[2,3-b]pyridin-2-yl)pentan-1-one]	–	–	–	–	–	–	–	–	–	–	–	–	activation at […] [1, 4]: 16.8%; activation at […] [1, 5]: 49.5%; activation at […] [2, 6]: 11.8%; activation at […] [2, 7]: 17.5%; activation at […] [3, 8]: 42.4%; activation at […] [3, 9]: 20.6%
COc1ccccc1N(CC(=O)Nc1ccc(F)c(Cl)c1)S(=O)(=O)c1ccccc1 [compound 537833]	–	–	–	–	–	–	42.3	73.2	-7.54	-7.44	4.94	9.04	–
CCOC(=O)c1sc2nc(-c3cccs3)cc(-c3ccc(F)cc3)c2c1N [compound 413423]	–	–	–	–	–	–	–	–	–	–	–	–	activation at […] [1, 4]: 7.89%; activation at […] [1, 5]: 3.13%; activation at […] [2, 6]: -5.65%; activation at […] [2, 7]: -8.76%; activation at […] [3, 8]: 3.41%; activation at […] [3, 9]: 3.91%
COc1ccc(N(CC(=O)Nc2ccc(C(=O)O)cc2)S(=O)(=O)c2ccccc2)cc1 [compound 742790]	–	–	–	–	–	–	5.94	34.4	13.8	23.1	12.8	17.3	–
COc1ccc(OC)c(N(CC(=O)Nc2ccccc2C(=O)NC(C)C)S(=O)(=O)c2ccc(OC)c(OC)c2)c1 [compound 1003378]	–	–	–	–	–	–	7.23	16.7	-4.42	-3.27	7.3	1.27	–
COc1ccc(NC(=O)CN(c2ccccc2)S(=O)(=O)c2ccccc2)cc1 [compound 474759]	–	–	–	–	–	–	-5.04	-12.7	2.58	6.4	5.54	-0.03	–
COc1ccc(OC)c(N(CC(=O)N2CCc3ccccc32)S(=O)(=O)c2ccccc2)c1 [SW208003]	117	75.9	13.3	-11.5	37	45.6	–	–	–	–	–	–	–
COc1ccc(OC)c(N(CC(=O)N2CCCCC2)S(=O)(=O)c2ccccc2)c1 [SW131633]	104	-40.6	77.2	141	8.42	150	–	–	–	–	–	–	–
COc1ccc(OC)c(N(CC(=O)Nc2ccc(Cl)c(Cl)c2)S(=O)(=O)c2ccccc2)c1 [339589-55-8]	–	–	–	–	–	–	–	–	–	–	–	–	activation at […] [1, 16]: 64%; activation at […] [1, 17]: 52.5%; activation at […] [2, 18]: -7%; activation at […] [3, 19]: -5.54%; activation at […] [3, 20]: 8.81%
CCc1cccc(CC)c1NC(=O)CN(c1cc(OC)ccc1OC)S(=O)(=O)c1ccc(OC)c(OC)c1 [compound 1003429]	–	–	–	–	–	–	-7.46	-19.2	12.6	4.17	8.82	-6.88	–
CCOC(=O)c1sc2nc(-c3cccs3)cc(-c3ccccc3)c2c1N [SW206978, Ethyl 3-amino-4-phenyl-6-(thiophen-2-yl)thieno[2,3-b]pyridine-2-carboxylate]	–	–	–	–	–	–	–	–	–	–	–	–	activation at […] [1, 4]: 38.8%; activation at […] [1, 5]: 35.8%; activation at […] [2, 6]: 7.51%; activation at […] [2, 7]: 8.02%; activation at […] [3, 8]: 31.4%; activation at […] [3, 9]: 26.2%
COc1ccc(OC)c(N(CC(=O)NC(C)c2ccccc2)S(=O)(=O)c2ccc(OC)c(OC)c2)c1 (stereo not drawn) [compound 967134]	–	–	–	–	–	–	18.4	36.1	-10.1	-2.64	5.11	5.73	–
